Test systems include EKVX NSCLC; HCT-15 colon; HOP-92 NSCLC; HT29 colon; MDA-MB-231 breast; NCI-H23 lung; RXF 393 renal; SF-539 CNS; SK-MEL-5 melanoma; SK-OV-3 ovarian.
Common to all, as to assay: inhibition of tumour cell growth, NCI panel, 48 h

Structures are written as SMILES.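 Five concentrations, 48 hours, 96-well plates. The concentration for 50% growth inhibition is given as GI50. At the TGI there is no net growth.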

With `CCCCn1c(=O)c2c(nc3n2CCCN3CCc2ccc(OCC(=O)NCCN(CC)CC)cc2)n(CCCC)c1=O`, the GI50 is 5.2 µM in the assay with EKVX NSCLC; 1.11 µM in the assay on HCT-15 colon; 0.846 µM in the assay on HOP-92 NSCLC; 1.91 µM in the assay on HT29 colon; 1.91 µM in the assay on MDA-MB-231 breast; 6.51 µM with NCI-H23 lung. The GI50 in the assay with RXF 393 renal was 1.65 µM; in the assay on SF-539 CNS it was 1.87 µM; in the assay on SK-MEL-5 melanoma it was 0.864 µM; in the assay with SK-OV-3 ovarian it was 5.93 µM. The TGI in the assay with EKVX NSCLC was determined as 11.7 µM; in the assay on HCT-15 colon, 3.47 µM; in the assay on HOP-92 NSCLC, 3.45 µM; in the assay on HT29 colon, 6.4 µM; with MDA-MB-231 breast, 7.26 µM; in the assay on NCI-H23 lung, 15.6 µM. Further, the TGI is 6.76 µM in the assay with RXF 393 renal, 7 µM with SF-539 CNS, 1.65 µM in the assay on SK-MEL-5 melanoma and 12.6 µM in the assay with SK-OV-3 ovarian.

The record behind these values is PubChem BioAssay (NCI).
